Results reported in US20250295762A1, “COMPOSITE BIOACTIVE COMPOSITIONS AND APPLICATIONS THEREOF” (THE UNIVERSITY OF NORTH CAROLINA AT CHAPEL HILL, priority 2022, published 2025).
In brackets after ≈: the same amount, converted by molar mass.

System: 3T3 fibroblasts
Experiment: Cell viability by MTT assay in fibroblasts
Type: cell-based
Details: 24 h; for IC50: Fibroblast, read-out: 50% Inhibitory Concentration (IC50)
Description: All cell lines (RAW 264.7 murine macrophages, DC2.4 dendritic cells, and 3T3 fibroblasts; ATCC, Manassas, VA) were maintained according to ATCC guidelines. B3Z T cells were obtained from Dr. Nilabh Shastri (Johns Hopkins) and maintained and used as previously outlined. See, Broaders, K. E.; Cohen, J. A.; Beaudette, T. T.; Bachelder, E. M.; Frechet, J. M., Acetalated dextran is a chemically and biologically tunable material for particulate immunotherapy. Proc Natl Acad Sci USA 2009, 106 (14), 5497-502. Cell viability was determined with an MTT assay, as previously described. See, Chen, N.; Collier, M. A.; Gallovic, M. D.; Collins, G. C.; Sanchez, C. C.; Fernandes, E. Q.; Bachelder, E. M.; Ainslie, K. M., Degradation of acetalated dextran can be broadly tuned based on cyclic acetal coverage and molecular weight. Int J Pharm 2016, 512 (1), 147-157.

SMILES	IC50 [µg/mL]	50% Inhibitory Concentration (IC50) [µg/mL]
Cc1ncc[nH]1 [2-methylimidazole]	~1000 (≈ 12.2 mM)	–
CC(=O)[O-].CC(=O)[O-].[Zn+2] [zinc acetate dihydrate]	–	16.0 ± 1.0
O.O.O.O.O.O.O=[N+]([O-])[O-].O=[N+]([O-])[O-].[Zn+2] [zinc nitrate hexahydrate]	–	25.8 ± 2.1
NCCC(=O)N[C@@H](Cc1cnc[nH]1)C(=O)O [L-carnosine]	> 1000	–
